This note sets out measurements from US9012489B2, “Phenyl-3-aza-bicyclo[3.1.0]hex-3-yl-methanones and the use thereof as medicament” (Boehringer Ingelheim International GmbH, priority 2011, dated 2015).

The experiment addresses T1, GlyT1 transporter (Homo sapiens, UniProt P48067).
T1 construct: endogenously expressing the GlyT1 transporter; host or cells: SK-N-MC human neuroblastoma cells
T1 sequence (P48067 1-706): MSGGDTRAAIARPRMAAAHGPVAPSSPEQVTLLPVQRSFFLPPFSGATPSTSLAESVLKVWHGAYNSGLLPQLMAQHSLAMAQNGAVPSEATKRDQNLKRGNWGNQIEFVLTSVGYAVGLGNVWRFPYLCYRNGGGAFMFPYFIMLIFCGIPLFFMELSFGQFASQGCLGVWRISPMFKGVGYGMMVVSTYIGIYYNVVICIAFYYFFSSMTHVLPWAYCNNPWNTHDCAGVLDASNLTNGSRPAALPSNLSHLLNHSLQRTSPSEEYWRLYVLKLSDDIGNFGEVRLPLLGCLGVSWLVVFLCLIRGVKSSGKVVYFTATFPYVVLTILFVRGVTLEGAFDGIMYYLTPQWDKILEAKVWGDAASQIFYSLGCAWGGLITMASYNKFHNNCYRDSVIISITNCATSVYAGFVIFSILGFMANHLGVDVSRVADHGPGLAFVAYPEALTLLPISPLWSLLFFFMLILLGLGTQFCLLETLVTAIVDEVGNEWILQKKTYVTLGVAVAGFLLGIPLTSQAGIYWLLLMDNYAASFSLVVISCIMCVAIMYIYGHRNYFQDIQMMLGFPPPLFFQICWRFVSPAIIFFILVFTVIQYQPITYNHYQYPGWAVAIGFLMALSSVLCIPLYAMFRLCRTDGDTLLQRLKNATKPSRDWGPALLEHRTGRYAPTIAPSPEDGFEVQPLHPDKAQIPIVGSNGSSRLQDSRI
The experiment is described as follows: GlyT1 assay: 3H-glycine uptake into SK-N-MC cells (Cytostar-T format). It counts as cell-based. Particulars: glycine uptake in human SK-N-MC cells endogenously expressing GlyT1; 500 nM glycine, 1% DMSO, signal recorded over 60 min. The source says:
Cells expressing either endogenously the GlyT1 transporter like JAR cells (human placental choriocarcinoma cells; e.g. WO 2008/002583) or SK-N-MC cells (human neuroblastoma cells; Depoortere et al., 2005. Neuropsychopharmacology 30:1963-1985) or primary neurons or cells which have been transfected with a plasmid encoding the cDNA of a functional GlyT1 transporter and stably or transiently express GlyT1 (e.g. WO 2006/08200) can be used to monitor glycine uptake in cells. Different protocols for determination of the glycine uptake into the cells described above can be applied in order to identify and rank compounds which interfere with glycine uptake in the selected cell.
Compounds outlined in the examples below were characterized using human SK-N-MC cells (ATCC number HTB-10) endogenously expressing the GlyT1 transporter which is responsible for the uptake of glycine into these cells and the uptake of glycine into these cells is monitored using the Cytostar-T assay format (GE Healthcare, RPNQ0162) which is based on the radioactive glycine taken up by the cells and brought into proximity with the scintillant contained within the base of the plate. The radioactive decay is converted to a light signal based on the integration of the scintillation matrix into the assay plate. The uptake is recorded as kinetic and the slope of the measured counts over time is used to calculate IC50.
In detail, SK-N-MC cells are seeded into 96-well Cytostar-T assay plates at a density of 200,000 cells/well and grown for 16-18 hours to confluence in growth medium as recommended by ATCC. Before starting the assay, cells are washed once with HBSS (Hank's buffered salt solution; Sigma, H8264) cont. 5 mM alanine (referred in here as HBSS/Ala) and afterwards the following reagents are added: • 1. 80 μl/well HBSS/Ala • 2. 20 μl/well of HBSS/Ala containing 6× the concentration of compound in 6% DMSO • 3. approx. 5-10 min incubation • 4. 20 μl/well 3 μM glycine (^3H-glycine (Perkin Elmer, NET004001MC, specific activity: 52 Ci/mmol; diluted 1:1 with unlabelled glycine) in HBSS/Ala.
In the final assay, glycine concentration is 500 nM (250 nM derived from the ^3H-glycine Perkin Elmer, 250 nM unlabelled glycine), DMSO concentration is 1%.
The assay plate is immediately after addition of the ^3H-glycine placed into a Micro-Beta Counter (Perkin Elmer) and the signal is recorded over 60 min.
To calculate uptake, the slope in the linear range of the kinetics is determined using GraphPadPrism and for the different slopes at the selected concentrations IC50 are calculated by curve fitting using the software GraphPadPrism.
Maximal glycine uptake in every experiment is determined by incubation of SK-N-MC cells with substrate but without inhibitor. Unspecific uptake of glycine by the cells is determined by incubating the cells with substrate and a reference GlyT1 inhibitor e.g. 10 μM RG-1678 (Pinard et al., 2010, J. Med. Chem. 53(12):4603-14).
Compounds are diluted from 10 mM stocks and in general, for IC50 determination 8 compound concentrations are used.
As to `C[C@H](Oc1ccc(S(C)(=O)=O)cc1C(=O)N1CC2CC2(c2noc(C3CC(F)(F)C3)n2)C1)C(F)(F)F` (single isomer, unassigned) [Example 59], the midpoint of inhibition, the IC50, lay at 8 nM.

`C[C@@H](Oc1ccc(S(C)(=O)=O)cc1C(=O)N1CC2CC2(c2ncc(C(F)(F)F)o2)C1)C(F)(F)F` (mixture of isomers) [Example 128, [5-Methanesulfonyl-2-(2,2,2-trifluoro-1-methyl-ethoxy)-phenyl]-[1-(5-trifluoromethyl-oxazol-2-yl)-3-aza-bicyclo[3.1.0]hex-3-yl]-methanone] returned a half-inhibitory concentration (IC50) of 6 nM.

As for `C[C@@H](Oc1ccc(S(C)(=O)=O)cc1C(=O)N1CC2CC2(c2noc(C(F)(F)F)n2)C1)C(F)(F)F` (single isomer, unassigned) [Example 4, [5-Methanesulfonyl-2-(2,2,2-trifluoro-1-methyl-ethoxy)-phenyl]-[1-(5-trifluoromethyl-[1,2,4]oxadiazol-3-yl)-3-aza-bicyclo[3.1.0]hex-3-yl]-methanone], half-maximal inhibition (IC50) was put at 9 nM.

Regarding `CC(C)Oc1ccc(S(C)(=O)=O)cc1C(=O)N1CC2CC2(c2nc(C(F)(F)F)co2)C1` (single isomer, unassigned) [Example 111, (2-Isopropoxy-5-methanesulfonyl-phenyl)-[1-(4-trifluoromethyl-oxazol-2-yl)-3-aza-bicyclo[3.1.0]hex-3-yl]-methanone], the IC50 was 257 nM.

In turn, `Cc1conc1C12CC1CN(C(=O)c1cc(S(C)(=O)=O)ccc1O[C@@H](C)C(F)(F)F)C2` (mixture of isomers) [Example 108, [5-Methanesulfonyl-2-(2,2,2-trifluoro-1-methyl-ethoxy)-phenyl]-[1-(4-methyl-isoxazol-3-yl)-3-aza-bicyclo[3.1.0]hex-3-yl]-methanone] showed an IC50 of 10 nM.

For `CCS(=O)(=O)c1ccc(O[C@@H](C)C(F)(F)F)c(C(=O)N2CC3CC3(c3cc(C(F)(F)F)on3)C2)c1` (single isomer, unassigned) [Example 104, [5-Ethanesulfonyl-2-(2,2,2-trifluoro-1-methyl-ethoxy)-phenyl]-[1-(5-trifluoromethyl-isoxazol-3-yl)-3-aza-bicyclo[3.1.0]hex-3-yl]-methanone], the IC50 came out at 292 nM.

In the case of `C[C@H](Oc1ccc(S(C)(=O)=O)cc1C(=O)N1CC2CC2(c2noc(C3(C(F)(F)F)CC3)n2)C1)C(F)(F)F` (single isomer, unassigned) [Example 66, [5-Methanesulfonyl-2-(2,2,2-trifluoro-1-methyl-ethoxy)-phenyl]-{1-[5-(1-trifluoromethyl-cyclopropyl)-[1,2,4]oxadiazol-3-yl]-3-aza-bicyclo[3.1.0]hex-3-yl}-methanone], the IC50 was 4 nM.

In turn, `C[C@@H](Oc1ccc(S(C)(=O)=O)cc1C(=O)N1CC2CC2(c2coc(C3CC3)n2)C1)C(F)(F)F` (mixture of isomers) [Example 81, [1-(2-Cyclopropyl-oxazol-4-yl)-3-aza-bicyclo[3.1.0]hex-3-yl]-[5-methanesulfonyl-2-((S)-2,2,2-trifluoro-1-methyl-ethoxy)-phenyl]-methanone] gave a 50% inhibitory concentration (IC50) of 6 nM.

`C[C@@H](Oc1ccc(S(C)(=O)=O)cc1C(=O)N1CC2CC2(c2noc(C3(C)CC3)n2)C1)C(F)(F)F` (mixture of isomers) [Example 135, [5-Methanesulfonyl-2-(2,2,2-trifluoro-1-methyl-ethoxy)-phenyl]-{1-[5-(1-methyl-cyclopropyl)-[1,2,4]oxadiazol-3-yl]-3-aza-bicyclo[3.1.0]hex-3-yl}-methanone] had an IC50 of 7 nM. This IC50 and that of the molecule before are within 1.5-fold of each other.

As to `Cc1c(C23CC2CN(C(=O)c2cc(S(C)(=O)=O)ccc2O[C@H](C)C(F)(F)F)C3)noc1C(F)(F)F` (single isomer, unassigned) [Example 162], the concentration for half-maximal inhibition (IC50) was 387 nM.

Molecule `Cc1c(C23CC2CN(C(=O)c2cc(S(C)(=O)=O)ccc2O[C@H](C)C(F)(F)F)C3)noc1C(F)(F)F` (mixture of isomers) [Example 160] gave an IC50 of 8 nM. This IC50 lies about 48-fold lower than the previous one.

With `CCS(=O)(=O)c1ccc(O[C@H](C)C(F)(F)F)c(C(=O)N2CC3CC3(c3cc(C(F)(F)F)on3)C2)c1` (single isomer, unassigned) [Example 106, [5-Ethanesulfonyl-2-(2,2,2-trifluoro-1-methyl-ethoxy)-phenyl]-[1-(5-trifluoromethyl-isoxazol-3-yl)-3-aza-bicyclo[3.1.0]hex-3-yl]-methanone], the IC50 was 248 nM.

`CCS(=O)(=O)c1ccc(O[C@@H](C)C(F)(F)F)c(C(=O)N2CC3CC3(c3nccc(C(F)(F)F)n3)C2)c1` (mixture of isomers) [Example 73, [5-Ethanesulfonyl-2-(2,2,2-trifluoro-1-methyl-ethoxy)-phenyl]-[1-(4-trifluoromethyl-pyrimidin-2-yl)-3-aza-bicyclo[3.1.0]hex-3-yl]-methanone] registered a half-inhibitory concentration (IC50) of 9 nM. This IC50 lies about 28-fold lower than the previous one.

The molecule `C[C@H](Oc1ccc(S(C)(=O)=O)cc1C(=O)N1CC2CC2(c2noc(C3CC3)n2)C1)C(F)(F)F` (single isomer, unassigned) [Example 11, [1-(5-Cyclopropyl-[1,2,4]oxadiazol-3-yl)-3-aza-bicyclo[3.1.0]hex-3-yl]-[5-methanesulfonyl-2-(2,2,2-trifluoro-1-methyl-ethoxy)-phenyl]-methanone] registered an IC50 of 175 nM. This IC50 lies about 19-fold higher than the previous one.

`C[C@@H](Oc1ccc(S(C)(=O)=O)cc1C(=O)N1CC2CC2(c2nc(C(F)(F)F)co2)C1)C(F)(F)F` (mixture of isomers) [Example 113, [5-Methanesulfonyl-2-(2,2,2-trifluoro-1-methyl-ethoxy)-phenyl]-[1-(4-trifluoromethyl-oxazol-2-yl)-3-aza-bicyclo[3.1.0]hex-3-yl]-methanone]: 216 nM corresponded to half-maximal inhibition (IC50).

On to `C[C@@H](Oc1ccc(S(C)(=O)=O)cc1C(=O)N1CC2CC2(c2csc(C(F)(F)F)n2)C1)C(F)(F)F` (mixture of isomers) [Example 29, [5-Methanesulfonyl-2-(2,2,2-trifluoro-1-methyl-ethoxy)-phenyl]-[1-(2-trifluoromethyl-thiazol-4-yl)-3-aza-bicyclo[3.1.0]hex-3-yl]-methanone], for which the IC50 turned out to be 11 nM.

`C[C@H](Oc1ccc(S(C)(=O)=O)cc1C(=O)N1CC2CC2(c2cccc(C(F)(F)F)n2)C1)C(F)(F)F` (single isomer, unassigned) [Example 55, [5-Methanesulfonyl-2-(2,2,2-trifluoro-1-methyl-ethoxy)-phenyl]-[1-(6-trifluoromethyl-pyridin-2-yl)-3-aza-bicyclo[3.1.0]hex-3-yl]-methanone] gave a half-maximal inhibitory concentration (IC50) of 22 nM.

For the molecule `CC(C)Oc1ccc(S(C)(=O)=O)cc1C(=O)N1CC2CC2(c2noc(C(F)(F)F)n2)C1` (single isomer, unassigned) [Example 98, (2-Isopropoxy-5-methanesulfonyl-phenyl)-[1-(5-trifluoromethyl-[1,2,4]oxadiazol-3-yl)-3-aza-bicyclo[3.1.0]hex-3-yl]-methanone], the IC50 amounted to 1890 nM.

As usually defined, the IC50 is the concentration needed to halve the response being measured.
